Data published in ChEMBL document CHEMBL1129230, “Inhibitory effects of scopadulcic acid B and its derivatives on bone resorption and osteoclast formation in vitro” (1996).

Assays:
Assay type in all cases: functional
[1] = species: Mus musculus; assay: Inhibition of PTH-stimulated bone resorption at concentration of 2 uM
[2] = species: Mus musculus; assay: Inhibition of PTH-stimulated bone resorption at concentration of 5 uM
[3] = species: Mus musculus; assay: Inhibition of PTH-stimulated osteoclast-like cell formation at concentration 10 uM
[4] = species: Mus musculus; assay: Inhibition of PTH-stimulated osteoclast-like cell formation at concentration 2 uM
[5] = species: Mus musculus; assay: Inhibition of PTH-stimulated osteoclast-like cell formation at concentration 5 uM
[6] = species: Mus musculus; assay: compound was evaluated in vitro for the inhibition of PTH-stimulated osteoclast-like cell formation at concentration 2 uM
[7] = species: Mus musculus; assay: compound was evaluated in vitro for the inhibition of PTH-stimulated osteoclast-like cell formation at concentration 5 uM
[8] = species: Mus musculus; assay: compound was evaluated in vitro for the inhibition of PTH-stimulated osteoclast-like cell formation at concentration 10 uM
[9] = species: Mus musculus; assay: Inhibition of PTH-stimulated bone resorption at concentration of 10 uM
[10] = species: Mus musculus; assay: compound was evaluated in vitro for the inhibition of PTH-stimulated osteoclast-like cell formation at concentration 0.05 uM
[11] = species: Mus musculus; assay: compound was evaluated in vitro for the inhibition of PTH-stimulated osteoclast-like cell formation at concentration 0.1 uM
[12] = species: Mus musculus; assay: compound was evaluated in vitro for the inhibition of PTH-stimulated osteoclast-like cell formation at concentration 0.5 uM

C[C@@]1(CO)CCC[C@@]2(C)C1[C@H](OC(=O)c1ccccc1)C[C@H]1C[C@@H](O)[C@@]3(C)CC[C@]12C3 (stereo partly drawn)
Inhibition [1]: -60%
Inhibition [2]: 95%
inhibition at 10 µM [3]: 105%
inhibition at 2 µM [4]: 17%
inhibition at 5 µM [5]: 87%

C[C@@]1(CO)CCC[C@@]2(C)C1[C@H](OC(=O)c1ccccc1)C[C@H]1C[C@H](O)[C@@]3(C)CC[C@]12C3 (stereo partly drawn)
Inhibition [1]: -51%
Inhibition [2]: 99%
inhibition at 2 µM [6]: 24%
inhibition at 5 µM [7]: 75%
inhibition at 10 µM [8]: 94%

C[C@]12CC[C@]3(C1)C(CC2=O)C[C@@H](OC(=O)c1ccccc1)C1[C@](C)(CO)CCC[C@@]13C (stereo partly drawn)
Inhibition [1]: 106%
Inhibition [2]: 99%
Inhibition [9]: 99%
inhibition at 0.05 µM [10]: 44%
inhibition at 0.1 µM [11]: 115%
inhibition at 0.5 µM [12]: 137%
inhibition at 10 µM [3]: 137%
inhibition at 2 µM [4]: 137%
inhibition at 5 µM [5]: 137%

C[C@]12CC[C@]3(C1)[C@@H](C[C@@H](O)[C@H]1[C@](C)(CO)CCC[C@@]13C)C[C@H]2O
Inhibition [1]: -8%
Inhibition [2]: 6%
Inhibition [9]: -17%

CC(=O)OC[C@]1(C)CCC[C@@]2(C)[C@H]1[C@H](OC(=O)c1ccccc1)C[C@H]1CC(=O)[C@@]3(C)CC[C@]12C3
Inhibition [1]: 12%
Inhibition [2]: 107%
Inhibition [9]: 125%
inhibition at 10 µM [3]: 105%
inhibition at 2 µM [4]: 45%
inhibition at 5 µM [5]: 90%

CC(=O)O[C@@H]1C[C@H]2CC(=O)[C@@]3(C)CC[C@@]2(C3)[C@@]2(C)CCC[C@@](C)(C(=O)O)[C@H]12
Inhibition [1]: 33%
Inhibition [2]: 40%
Inhibition [9]: 47%
inhibition at 10 µM [3]: 37%
inhibition at 2 µM [4]: -8%
inhibition at 5 µM [5]: 27%

C[C@]12CC[C@]3(C1)[C@@H](C[C@@H](OC(=O)c1ccccc1)[C@H]1[C@](C)(C(=O)O)CCC[C@@]13C)C[C@@H]2O
Inhibition [1]: 35%
Inhibition [2]: 39%
Inhibition [9]: 70%
inhibition at 10 µM [3]: 93%
inhibition at 2 µM [4]: 24%
inhibition at 5 µM [5]: 75%

COC(=O)[C@]1(C)CCC[C@@]2(C)[C@H]1[C@H](OC(=O)c1ccccc1)C[C@H]1C[C@H](OC(C)=O)[C@@]3(C)CC[C@]12C3
Inhibition [1]: 38%
Inhibition [2]: 51%
Inhibition [9]: 55%
inhibition at 10 µM [3]: 134%
inhibition at 2 µM [4]: 81%
inhibition at 5 µM [5]: 109%

COC(=O)[C@]1(C)CCC[C@@]2(C)[C@H]1[C@H](OC(=O)c1ccccc1)C[C@H]1C[C@@H](O)[C@@]3(C)CC[C@]12C3
Inhibition [1]: 22%
Inhibition [2]: 29%
Inhibition [9]: 49%

COC(=O)[C@]1(C)CCC[C@@]2(C)[C@H]1[C@H](OC(=O)c1ccccc1)C[C@H]1C[C@H](O)[C@@]3(C)CC[C@]12C3
Inhibition [1]: -23%
Inhibition [2]: -17%
Inhibition [9]: -10%

C[C@]12CC[C@]3(C1)[C@H](C/C2=N\O)C[C@@H](OC(=O)c1ccccc1)[C@H]1[C@](C)(C(=O)O)CCC[C@@]13C
Inhibition [1]: 28%
Inhibition [2]: 66%
Inhibition [9]: 90%

CC(=O)O[C@@H]1C[C@@H]2C[C@@H](OC(=O)c3ccccc3)[C@H]3[C@](C)(C(=O)O)CCC[C@]3(C)[C@]23CC[C@@]1(C)C3
Inhibition [1]: 27%
Inhibition [2]: 26%
Inhibition [9]: 42%
inhibition at 10 µM [3]: 79%
inhibition at 2 µM [4]: 55%
inhibition at 5 µM [5]: 72%

COC(=O)[C@]1(C)CCC[C@@]2(C)[C@H]1[C@H](OC(=O)c1ccccc1)C[C@H]1C[C@@H](OC(C)=O)[C@@]3(C)CC[C@]12C3
Inhibition [1]: 55%
Inhibition [2]: 40%
Inhibition [9]: 37%
inhibition at 10 µM [3]: 112%
inhibition at 2 µM [4]: 60%
inhibition at 5 µM [5]: 70%

C[C@]12CC[C@]3(C1)[C@H](C[C@H]2O)C[C@@H](OC(=O)c1ccccc1)[C@H]1[C@](C)(C(=O)O)CCC[C@@]13C
Inhibition [1]: 45%
Inhibition [2]: 40%
Inhibition [9]: 37%
inhibition at 10 µM [3]: 104%
inhibition at 2 µM [4]: 17%
inhibition at 5 µM [5]: 87%

COC(=O)[C@]1(C)CCC[C@@]2(C)[C@H]1[C@H](OC(=O)c1ccccc1)C[C@H]1CC(=O)[C@@]3(C)CC[C@]12C3
Inhibition [1]: 78%
Inhibition [2]: 74%
Inhibition [9]: 110%
inhibition at 10 µM [3]: 118%
inhibition at 2 µM [4]: 70%
inhibition at 5 µM [5]: 91%

C[C@]12CC[C@]3(C1)[C@@H](C[C@@H](O)[C@H]1[C@](C)(CO)CCC[C@@]13C)C[C@@H]2O
Inhibition [1]: -5%
Inhibition [2]: -25%
Inhibition [9]: -4%

CC(=O)O[C@H]1C[C@@H]2C[C@@H](OC(=O)c3ccccc3)[C@H]3[C@](C)(C(=O)O)CCC[C@]3(C)[C@]23CC[C@@]1(C)C3
Inhibition [1]: 21%
Inhibition [2]: 18%
Inhibition [9]: 8%

C[C@]12CC[C@]3(C1)C(CC2=O)C[C@@H](O)C1[C@](C)(C(=O)O)CCC[C@@]13C (stereo partly drawn)
Inhibition [1]: 43%
Inhibition [2]: 92%
Inhibition [9]: 94%
inhibition at 10 µM [3]: 20%
inhibition at 2 µM [4]: 0%
inhibition at 5 µM [5]: 10%

CC(=O)OC[C@]1(C)CCC[C@@]2(C)C1[C@H](O)CC1C[C@H](OC(C)=O)[C@@]3(C)CC[C@]12C3 (stereo partly drawn)
Inhibition [1]: 1%
Inhibition [2]: 23%
Inhibition [9]: 11%

C[C@]12CC[C@]3(C1)[C@H](CC2=O)C[C@@H](OC(=O)c1ccccc1)[C@H]1[C@@](CO)(C(=O)O)CCC[C@@]13C [SCOPADULCIC ACID A]
Inhibition [1]: 46%
Inhibition [2]: 24%
Inhibition [9]: -14%

C[C@]12CC[C@]3(C1)[C@H](CC2=O)C[C@@H](OC(=O)c1ccccc1)[C@H]1[C@](C)(C(=O)O)CCC[C@@]13C [SCOPADULCIC ACID B]
Inhibition [1]: 28%
Inhibition [2]: 76%
Inhibition [9]: 94%
inhibition at 10 µM [3]: 87%
inhibition at 2 µM [4]: 59%
inhibition at 5 µM [5]: 74%
